# Assay results taken from PubChem BioAssay (NCI).
#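 48-hour exposure; five concentrations; linearly interpolated endpoints. GI50 marks 50% less growth. Definition used: TGI = concentration required for complete inhibition of growth.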
# Columns and labels:
# Assay in all cases: growth of human tumour cells (NCI), 48 h
# MDA-MB-435 = system: MDA-MB-435
# 786-0 renal = system: 786-0 renal
# BT-549 breast = system: BT-549 breast
# TK-10 renal = system: TK-10 renal
# NCI-H23 lung = system: NCI-H23 lung
# NCI-H226 lung = system: NCI-H226 lung
# OVCAR-5 ovarian = system: OVCAR-5 ovarian
# NCI/ADR-RES ovarian = system: NCI/ADR-RES ovarian
# HCT-116 colon = system: HCT-116 colon
# SNB-19 CNS = system: SNB-19 CNS
# UACC-62 melanoma = system: UACC-62 melanoma
# A498 renal = system: A498 renal
# LOX IMVI melanoma = system: LOX IMVI melanoma
# SR leukemia = system: SR leukemia
# HCT-15 colon = system: HCT-15 colon
# SF-268 CNS = system: SF-268 CNS
# SF-295 CNS = system: SF-295 CNS
# SK-MEL-5 melanoma = system: SK-MEL-5 melanoma
# IGROV1 ovarian = system: IGROV1 ovarian
# ACHN renal = system: ACHN renal
# MDA-MB-468 breast = system: MDA-MB-468 breast
# HL-60(TB) leukemia = system: HL-60(TB) leukemia
# DU-145 prostate = system: DU-145 prostate
# RPMI-8226 leukemia = system: RPMI-8226 leukemia
# MCF7 breast = system: MCF7 breast
# OVCAR-8 ovarian = system: OVCAR-8 ovarian
# HOP-92 NSCLC = system: HOP-92 NSCLC
# MALME-3M melanoma = system: MALME-3M melanoma
# MDA-MB-231 breast = system: MDA-MB-231 breast
# OVCAR-3 ovarian = system: OVCAR-3 ovarian
# SN12C renal = system: SN12C renal
# CAKI-1 renal = system: CAKI-1 renal
# HCC-2998 colon = system: HCC-2998 colon
# SK-MEL-28 melanoma = system: SK-MEL-28 melanoma
# UO-31 renal = system: UO-31 renal
# COLO 205 colon = system: COLO 205 colon
# EKVX NSCLC = system: EKVX NSCLC
# K-562 leukemia = system: K-562 leukemia
# M14 melanoma = system: M14 melanoma
# HS 578T breast = system: HS 578T breast
# SK-OV-3 ovarian = system: SK-OV-3 ovarian
# SF-539 CNS = system: SF-539 CNS
# MOLT-4 leukemia = system: MOLT-4 leukemia
# SK-MEL-2 melanoma = system: SK-MEL-2 melanoma
# CCRF-CEM leukemia = system: CCRF-CEM leukemia
# SNB-75 CNS = system: SNB-75 CNS
# SW-620 colon = system: SW-620 colon
# T-47D breast = system: T-47D breast
# KM12 colon = system: KM12 colon
# A549 NSCLC = system: A549 NSCLC
# UACC-257 melanoma = system: UACC-257 melanoma
# PC-3 prostate = system: PC-3 prostate
# RXF 393 renal = system: RXF 393 renal
# HT29 colon = system: HT29 colon
# NCI-H460 lung = system: NCI-H460 lung
# OVCAR-4 ovarian = system: OVCAR-4 ovarian
# HOP-62 NSCLC = system: HOP-62 NSCLC
smiles,measurement,setting,value
Cn1cc(-c2cc3nc(-c4c[nH]c5ccccc45)cc(N)n3n2)c2ccccc21,GI50,MDA-MB-435,1.78 µM
same,TGI,MDA-MB-435,3.46 µM
same,GI50,786-0 renal,1.51 µM
same,TGI,786-0 renal,2.94 µM
same,GI50,BT-549 breast,12.4 µM
same,TGI,BT-549 breast,54.4 µM
same,GI50,TK-10 renal,1.77 µM
same,TGI,TK-10 renal,4.65 µM
same,GI50,NCI-H23 lung,1.75 µM
same,TGI,NCI-H23 lung,3.32 µM
same,GI50,NCI-H226 lung,2.2 µM
same,TGI,NCI-H226 lung,4.98 µM
same,GI50,OVCAR-5 ovarian,1.82 µM
same,TGI,OVCAR-5 ovarian,3.3 µM
same,GI50,NCI/ADR-RES ovarian,1.78 µM
same,TGI,NCI/ADR-RES ovarian,3.41 µM
same,GI50,HCT-116 colon,1.8 µM
same,TGI,HCT-116 colon,3.3 µM
same,GI50,SNB-19 CNS,3.43 µM
same,TGI,SNB-19 CNS,17.3 µM
same,GI50,UACC-62 melanoma,1.64 µM
same,TGI,UACC-62 melanoma,3.06 µM
same,GI50,A498 renal,19.7 µM
same,TGI,A498 renal,44.6 µM
same,GI50,LOX IMVI melanoma,1.86 µM
same,TGI,LOX IMVI melanoma,3.35 µM
same,GI50,SR leukemia,1.95 µM
same,TGI,SR leukemia,5.9 µM
same,GI50,HCT-15 colon,1.6 µM
same,TGI,HCT-15 colon,3.01 µM
same,GI50,SF-268 CNS,2.4 µM
same,TGI,SF-268 CNS,7.17 µM
same,GI50,SF-295 CNS,1.64 µM
same,TGI,SF-295 CNS,3.19 µM
same,GI50,SK-MEL-5 melanoma,1.95 µM
same,TGI,SK-MEL-5 melanoma,4.1 µM
same,GI50,IGROV1 ovarian,1.77 µM
same,TGI,IGROV1 ovarian,3.26 µM
same,GI50,ACHN renal,1.76 µM
same,TGI,ACHN renal,3.22 µM
same,GI50,MDA-MB-468 breast,1.55 µM
same,TGI,MDA-MB-468 breast,2.93 µM
same,GI50,HL-60(TB) leukemia,1.5 µM
same,TGI,HL-60(TB) leukemia,3.22 µM
same,GI50,DU-145 prostate,2.04 µM
same,TGI,DU-145 prostate,4.73 µM
same,GI50,RPMI-8226 leukemia,2.11 µM
same,TGI,RPMI-8226 leukemia,5.07 µM
same,GI50,MCF7 breast,1.68 µM
same,TGI,MCF7 breast,3.39 µM
same,GI50,OVCAR-8 ovarian,1.9 µM
same,TGI,OVCAR-8 ovarian,3.97 µM
same,GI50,HOP-92 NSCLC,1.94 µM
same,TGI,HOP-92 NSCLC,3.75 µM
same,GI50,MALME-3M melanoma,1.87 µM
same,TGI,MALME-3M melanoma,3.37 µM
same,GI50,MDA-MB-231 breast,1.94 µM
same,TGI,MDA-MB-231 breast,3.35 µM
same,GI50,OVCAR-3 ovarian,1.74 µM
same,TGI,OVCAR-3 ovarian,3.4 µM
same,GI50,SN12C renal,1.87 µM
same,TGI,SN12C renal,3.49 µM
same,GI50,CAKI-1 renal,1.68 µM
same,TGI,CAKI-1 renal,3.31 µM
same,GI50,HCC-2998 colon,1.65 µM
same,TGI,HCC-2998 colon,3.06 µM
same,GI50,SK-MEL-28 melanoma,1.74 µM
same,TGI,SK-MEL-28 melanoma,3.18 µM
same,GI50,UO-31 renal,1.54 µM
same,TGI,UO-31 renal,2.93 µM
same,GI50,COLO 205 colon,1.75 µM
same,TGI,COLO 205 colon,3.29 µM
same,GI50,EKVX NSCLC,1.65 µM
same,TGI,EKVX NSCLC,3.16 µM
same,GI50,K-562 leukemia,1.74 µM
same,TGI,K-562 leukemia,3.54 µM
same,GI50,M14 melanoma,1.75 µM
same,TGI,M14 melanoma,3.34 µM
same,GI50,HS 578T breast,2.55 µM
same,TGI,HS 578T breast,6.28 µM
same,GI50,SK-OV-3 ovarian,10.5 µM
same,TGI,SK-OV-3 ovarian,46.8 µM
same,GI50,SF-539 CNS,1.75 µM
same,TGI,SF-539 CNS,3.13 µM
same,GI50,MOLT-4 leukemia,1.77 µM
same,TGI,MOLT-4 leukemia,3.92 µM
same,GI50,SK-MEL-2 melanoma,1.87 µM
same,TGI,SK-MEL-2 melanoma,3.73 µM
same,GI50,CCRF-CEM leukemia,1.95 µM
same,TGI,CCRF-CEM leukemia,4.2 µM
same,GI50,SNB-75 CNS,1.74 µM
same,TGI,SNB-75 CNS,3.93 µM
COc1ccc(OC)c(/C=C/C(=O)c2nc3ccccc3n2Cc2ccc(F)cc2)c1,GI50,MDA-MB-435,2.02 µM
same,TGI,MDA-MB-435,4.94 µM
same,GI50,786-0 renal,2.93 µM
same,TGI,786-0 renal,9.51 µM
same,GI50,SW-620 colon,2.03 µM
same,TGI,SW-620 colon,4.63 µM
same,GI50,BT-549 breast,2.61 µM
same,TGI,BT-549 breast,7.6 µM
same,GI50,TK-10 renal,3.26 µM
same,TGI,TK-10 renal,17 µM
same,GI50,NCI-H23 lung,2.24 µM
same,TGI,NCI-H23 lung,6.62 µM
same,GI50,T-47D breast,2.95 µM
same,TGI,T-47D breast,> 100 µM
same,GI50,NCI-H226 lung,4.03 µM
same,TGI,NCI-H226 lung,25.5 µM
same,GI50,OVCAR-5 ovarian,2.45 µM
same,TGI,OVCAR-5 ovarian,5.56 µM
same,GI50,HCT-116 colon,1.61 µM
same,TGI,HCT-116 colon,3.06 µM
same,GI50,SNB-19 CNS,2.31 µM
same,TGI,SNB-19 CNS,6.08 µM
same,GI50,UACC-62 melanoma,1.93 µM
same,TGI,UACC-62 melanoma,5.06 µM
same,GI50,KM12 colon,2.52 µM
same,TGI,KM12 colon,7.14 µM
same,GI50,A498 renal,34.8 µM
same,TGI,A498 renal,> 100 µM
same,GI50,A549 NSCLC,3.27 µM
same,TGI,A549 NSCLC,> 100 µM
same,GI50,LOX IMVI melanoma,1.56 µM
same,TGI,LOX IMVI melanoma,3.06 µM
same,GI50,SR leukemia,2.2 µM
same,TGI,SR leukemia,7.4 µM
same,GI50,HCT-15 colon,1.62 µM
same,TGI,HCT-15 colon,3.69 µM
same,GI50,SF-268 CNS,3.5 µM
same,TGI,SF-268 CNS,> 100 µM
same,GI50,SF-295 CNS,3.05 µM
same,TGI,SF-295 CNS,13.2 µM
same,GI50,SK-MEL-5 melanoma,2.73 µM
same,TGI,SK-MEL-5 melanoma,10.1 µM
same,GI50,UACC-257 melanoma,4.03 µM
same,TGI,UACC-257 melanoma,27.3 µM
same,GI50,PC-3 prostate,3.82 µM
same,TGI,PC-3 prostate,> 100 µM
same,GI50,IGROV1 ovarian,3.01 µM
same,TGI,IGROV1 ovarian,11.1 µM
same,GI50,ACHN renal,2.94 µM
same,TGI,ACHN renal,9.13 µM
same,GI50,MDA-MB-468 breast,2.11 µM
same,TGI,MDA-MB-468 breast,5.8 µM
same,GI50,HL-60(TB) leukemia,1.57 µM
same,TGI,HL-60(TB) leukemia,5.93 µM
same,GI50,DU-145 prostate,3.53 µM
same,TGI,DU-145 prostate,> 100 µM
same,GI50,RPMI-8226 leukemia,2.05 µM
same,TGI,RPMI-8226 leukemia,5.89 µM
same,GI50,MCF7 breast,2.15 µM
same,TGI,MCF7 breast,> 100 µM
same,GI50,HOP-92 NSCLC,2.88 µM
same,TGI,HOP-92 NSCLC,43.8 µM
same,GI50,MALME-3M melanoma,3 µM
same,TGI,MALME-3M melanoma,14.3 µM
same,GI50,MDA-MB-231 breast,2 µM
same,TGI,MDA-MB-231 breast,4.43 µM
same,GI50,RXF 393 renal,1.92 µM
same,TGI,RXF 393 renal,4.41 µM
same,GI50,OVCAR-3 ovarian,2.17 µM
same,TGI,OVCAR-3 ovarian,5.6 µM
same,GI50,SN12C renal,3.47 µM
same,TGI,SN12C renal,> 100 µM
same,GI50,CAKI-1 renal,3.08 µM
same,TGI,CAKI-1 renal,> 100 µM
same,GI50,HT29 colon,2.34 µM
same,TGI,HT29 colon,5.43 µM
same,GI50,NCI-H460 lung,1.67 µM
same,TGI,NCI-H460 lung,4 µM
same,GI50,HCC-2998 colon,1.95 µM
same,TGI,HCC-2998 colon,3.93 µM
same,GI50,SK-MEL-28 melanoma,2.18 µM
same,TGI,SK-MEL-28 melanoma,4.68 µM
same,GI50,UO-31 renal,2.37 µM
same,TGI,UO-31 renal,8.61 µM
same,GI50,COLO 205 colon,2.61 µM
same,TGI,COLO 205 colon,8.08 µM
same,GI50,EKVX NSCLC,2.77 µM
same,TGI,EKVX NSCLC,> 100 µM
same,GI50,K-562 leukemia,2.52 µM
same,TGI,K-562 leukemia,> 100 µM
same,GI50,M14 melanoma,2.67 µM
same,TGI,M14 melanoma,9.56 µM
same,GI50,HS 578T breast,3.12 µM
same,TGI,HS 578T breast,> 100 µM
same,GI50,SK-OV-3 ovarian,11.4 µM
same,TGI,SK-OV-3 ovarian,> 100 µM
same,GI50,SF-539 CNS,2.14 µM
same,TGI,SF-539 CNS,4.67 µM
same,GI50,MOLT-4 leukemia,2.15 µM
same,TGI,MOLT-4 leukemia,7.98 µM
same,GI50,SK-MEL-2 melanoma,1.94 µM
same,TGI,SK-MEL-2 melanoma,4.19 µM
same,GI50,OVCAR-4 ovarian,5.02 µM
same,TGI,OVCAR-4 ovarian,> 100 µM
same,GI50,SNB-75 CNS,1.54 µM
same,TGI,SNB-75 CNS,6.66 µM
same,GI50,HOP-62 NSCLC,3.08 µM
same,TGI,HOP-62 NSCLC,11.2 µM
